The values below come from patent US20170340693A1, “DISLODGEMENT AND RELEASE OF HSC USING ALPHA 9 INTEGRIN ANTAGONIST AND CXCR4 ANTAGONIST” (COMMONWEALTH SCIENTIFIC AND INDUSTRIAL RESEARCH ORGANISATION, priority 2014, published 2017).

The subject of assay [1] is cord blood (CB) mononuclear cells (MNC). In words: R-BC154 (IXb) binding to cord blood mononuclear cell populations, flow cytometry. Format: cell-based, human. The conditions noted are these: 1 mM Ca2+/Mg2+. The protocol:
(§1) For in vitro labelling experiments, 5×10^6 BM cells from C57 mice, conditional α4^−/−/α9^−/− mice and humanised NODSCIDIL2Rγ^−/− mice and human cord blood MNCs were treated with R-BC154 (IXb) (up to 300 nM) in PBS (0.5% BSA) or TBS (0.5% BSA) containing either 1 mM CaCl2/MgCl2 (activating) or 10 mM EDTA (deactivating) at 40×10^6 cells/ml for 20 mins at 4° C. Cells were washed with cold PBS (2% FBS) and then immunolabelled as described in “Antibody Cocktails” prior to flow cytometric analysis. For in vivo experiments, C57BL/6 mice, α4^−/−/α9^−/− vav-cre mice and humanised NODSCIDIL2Rγ^−/− mice received either intravenous or subcutaneous injections of R-BC154 (IXb) (5-10 mg/kg) at 100 ul/10 gm mouse weight and analysed as described above.
(§2) For the assessment of α9β1 contribution to R-BC154 (IXb) binding, human and murine cells were stained with R-BC154 (100 nM) in the absence of competing antagonist or in the presence of excess amounts of the selective α4β1 antagonist BIO5192 (1 μM) or dual α4β1/α9β1 antagonist BOP (1 μM) in PBS containing 0.5% BSA and 1 mM CaCl2MgCl2 at 0° C. for 30 min. Cells were washed, immunolabelled as described above and analysed by flow cytometry. The contribution of α9β1 binding was calculated by measuring the difference in MFI between R-BC154 (IXb)+BIO5192 and +BOP and expressed as a % of R-BC154 (IXb) alone.
Background: In flow cytometry, cells or beads pass a laser one at a time.

Assay [2] concerns human BM committed cells, progenitors and HSC of huNSG mice. In words: R-BC154 (IXb) binding to humanized NSG (huNSG) BM. Format: cell-based. The conditions noted are these: Ca2+/Mg2+. How it is done: as §1, §2
In assay [3] the test system is murine BM progenitors (LSK) and HSC (LSKSLAM). Nature of the assay: In vitro R-BC154 (IXb) binding to murine central and endosteal BM cells. Format: cell-based, mice.
Source text: Populations of endosteal and central murine bone marrow cells were isolated as previously described in J. Grassinger, et al Cytokine, 2012, 58, 218-225 and D. N. Haylock et al Stem Cells, 2007, 25, 1062-1069. Briefly, one femur, tibia and iliac bone were excised and cleaned of muscle. After removing the epi- and metaphyseal regions, bones were flushed with PBS-2% FBS to obtain central bone marrow cells. Flushed long bones and epi- and metaphyseal fragments were pooled and crushed using a mortar and pestle. Bone fragments were digested with Collagenase I (3 mg/ml) and Dispase II (4 mg/ml) at 37° C. in an orbital shaker at 750 rpm. After 5 min, bone fragments were washed once with PBS and once with PBS 2% FBS to collect the endosteal bone marrow cells. Peripheral blood was collected by retro-orbital puncture and red blood cells were lysed using NH4Cl lysis buffer for 5 min at room temperature. Isolated cell populations were washed with PBS 2% FBS and then stained for flow cytometry as described in Antibody Cocktails above.
as §1
To determine whether integrin activation is required for binding to both central and endosteal BM progenitors (Lin^−Sca-1^+ckit^+ cells; LSK) and HSC (LSKCD150^+CD48^− cells; LSKSLAM) (FIG. 3a), R-BC154 (IXb) binding was assessed in the presence of 1 mM Ca^2+/Mg^2+ (FIG. 3b).

Assay [4] concerns bone marrow progenitor cells (LSK) and HSC (LSKSLAM). Nature of the assay: In vivo bone marrow binding assay. The conditions noted are these: 10 mg kg−1 intravenously, versus un-injected mice. How it is done:
R-BC154 (IXb) in PBS (10 mg kg-1) was injected intravenously into C57 mice. After 5 min, bone marrow cells were isolated as previously described in D. N. Haylock et at Stem Cells, 2007, 25, 1062-1069 and J. Grassinger, et al Cytokine, 2012, 58, 218-225. Briefly, one femur, tibia and iliac crest were excised and cleaned of muscle. After removing the epi- and metaphyseal regions, bones were flushed with PBS-2% FBS to obtain whole bone marrow, which were washed with PBS-2% FBS and then immunolabelled for flow cytometry. For analysis of R-BC154 (IXb) binding, the following antibody combinations were chosen to minimise emission spectra overlap. […]
To assess whether R-BC154 (IXb) and this class of N-phenylsulfonyl proline-based peptidomimetics could bind directly to HSC, R-BC154 (IXb) (10 mg kg^−1) was injected intravenously into mice and analysed for R-BC154 (IXb) labelling of phenotypically defined bone marrow progenitor cells (LSK cell; lineage-Sca-1+c-Kit+) and HSC (LSKSLAM cell; LSKCD48-CD150+) using multi-colour flow cytometry. […] Furthermore, in vivo R-BC154 (IXb) binding was also confirmed by fluorescence microscopy on purified populations of progenitor cells (Lineage-Sca-1+c-Kit+).

The target in the next assay is α4β1 integrin (Homo sapiens, UniProt P05556+P13612). Nature of the assay: In vitro (saturation) binding of R-BC154. Also on record: expressed in transfected cells; host or cells: LN18 (ATCC CRL-2610), retrovirally transduced. The conditions noted are these: in vitro binding data. How it is done:
(§3) Cultured α4β1, α9β1 and control LN18 cells (0.5×10^6 cells) were treated with 100 μl of compound (R-BC154) at 0, 1, 3, 10, 30 and 100 nM in TBS-2% FBS (containing either no cations, 1 mM CaCl2—MgCl2 or 1 mM MnCl2). The cells were incubated at 37° C. for 60 min, washed once with TBS-2% FBS, dry pelleted and resuspended in the relevant binding buffer for flow cytometric analysis. Mean channel fluorescence was plotted against concentration and fitted to a one-site saturation ligand binding curve using GraphPad Prism 6. The dissociation constant, Kd was determined from the curves.

A further assay addresses α9β1 integrin (Homo sapiens, UniProt P05556+Q13797). Nature of the assay: In vitro (saturation) binding of R-BC154. Also on record: expressed in transfected cells; host or cells: LN18 (ATCC CRL-2610), retrovirally transduced; endogenous α4 silenced with pSM2c-shITGA4. The conditions noted are these: in vitro binding data. The protocol:
as §3

α4β1 integrin, sequence (P13612 34-1032): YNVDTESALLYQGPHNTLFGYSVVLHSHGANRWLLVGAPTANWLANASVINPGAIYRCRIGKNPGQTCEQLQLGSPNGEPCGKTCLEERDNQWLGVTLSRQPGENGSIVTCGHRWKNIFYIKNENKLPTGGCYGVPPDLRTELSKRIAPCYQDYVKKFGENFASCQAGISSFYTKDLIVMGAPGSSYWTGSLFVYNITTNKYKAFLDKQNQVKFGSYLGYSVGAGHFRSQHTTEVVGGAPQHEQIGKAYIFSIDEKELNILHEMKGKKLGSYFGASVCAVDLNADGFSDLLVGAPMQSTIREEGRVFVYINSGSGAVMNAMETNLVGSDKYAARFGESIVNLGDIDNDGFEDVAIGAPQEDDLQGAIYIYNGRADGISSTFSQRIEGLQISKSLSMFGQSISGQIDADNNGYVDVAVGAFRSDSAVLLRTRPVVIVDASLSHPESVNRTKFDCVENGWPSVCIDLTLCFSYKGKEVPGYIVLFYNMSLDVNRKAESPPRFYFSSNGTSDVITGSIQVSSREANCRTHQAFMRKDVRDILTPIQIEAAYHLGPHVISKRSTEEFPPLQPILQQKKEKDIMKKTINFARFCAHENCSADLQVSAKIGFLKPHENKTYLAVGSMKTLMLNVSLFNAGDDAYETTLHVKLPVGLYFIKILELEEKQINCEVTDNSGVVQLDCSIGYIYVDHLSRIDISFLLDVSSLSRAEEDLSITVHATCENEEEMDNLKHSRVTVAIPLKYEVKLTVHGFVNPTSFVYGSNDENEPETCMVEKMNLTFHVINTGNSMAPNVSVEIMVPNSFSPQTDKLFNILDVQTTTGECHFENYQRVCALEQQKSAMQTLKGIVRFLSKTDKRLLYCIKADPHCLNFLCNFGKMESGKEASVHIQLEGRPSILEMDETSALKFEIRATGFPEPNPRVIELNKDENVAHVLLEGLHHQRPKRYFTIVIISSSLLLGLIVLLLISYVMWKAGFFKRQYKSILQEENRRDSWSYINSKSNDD
α4β1 integrin, sequence (P05556 21-798): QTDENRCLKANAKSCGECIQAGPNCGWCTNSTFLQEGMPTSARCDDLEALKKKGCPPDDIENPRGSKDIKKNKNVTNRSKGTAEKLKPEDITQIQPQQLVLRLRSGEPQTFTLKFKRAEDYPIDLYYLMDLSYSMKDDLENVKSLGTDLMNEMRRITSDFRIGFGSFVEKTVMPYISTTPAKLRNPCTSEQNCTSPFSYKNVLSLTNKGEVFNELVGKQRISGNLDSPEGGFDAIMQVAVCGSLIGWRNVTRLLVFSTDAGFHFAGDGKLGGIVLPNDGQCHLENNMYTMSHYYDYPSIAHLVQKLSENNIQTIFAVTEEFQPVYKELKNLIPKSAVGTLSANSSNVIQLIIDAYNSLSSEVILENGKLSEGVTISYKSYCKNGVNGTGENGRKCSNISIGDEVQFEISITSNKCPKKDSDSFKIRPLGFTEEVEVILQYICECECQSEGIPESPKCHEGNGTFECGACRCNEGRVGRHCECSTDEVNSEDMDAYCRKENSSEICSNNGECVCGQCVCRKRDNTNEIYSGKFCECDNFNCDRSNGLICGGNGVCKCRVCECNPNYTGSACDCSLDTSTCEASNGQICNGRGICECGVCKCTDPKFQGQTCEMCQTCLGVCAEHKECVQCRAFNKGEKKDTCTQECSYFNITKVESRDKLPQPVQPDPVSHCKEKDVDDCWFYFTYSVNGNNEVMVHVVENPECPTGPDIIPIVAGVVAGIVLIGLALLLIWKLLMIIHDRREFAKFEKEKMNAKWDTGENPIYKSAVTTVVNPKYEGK
α9β1 integrin, sequence (Q13797 30-1035): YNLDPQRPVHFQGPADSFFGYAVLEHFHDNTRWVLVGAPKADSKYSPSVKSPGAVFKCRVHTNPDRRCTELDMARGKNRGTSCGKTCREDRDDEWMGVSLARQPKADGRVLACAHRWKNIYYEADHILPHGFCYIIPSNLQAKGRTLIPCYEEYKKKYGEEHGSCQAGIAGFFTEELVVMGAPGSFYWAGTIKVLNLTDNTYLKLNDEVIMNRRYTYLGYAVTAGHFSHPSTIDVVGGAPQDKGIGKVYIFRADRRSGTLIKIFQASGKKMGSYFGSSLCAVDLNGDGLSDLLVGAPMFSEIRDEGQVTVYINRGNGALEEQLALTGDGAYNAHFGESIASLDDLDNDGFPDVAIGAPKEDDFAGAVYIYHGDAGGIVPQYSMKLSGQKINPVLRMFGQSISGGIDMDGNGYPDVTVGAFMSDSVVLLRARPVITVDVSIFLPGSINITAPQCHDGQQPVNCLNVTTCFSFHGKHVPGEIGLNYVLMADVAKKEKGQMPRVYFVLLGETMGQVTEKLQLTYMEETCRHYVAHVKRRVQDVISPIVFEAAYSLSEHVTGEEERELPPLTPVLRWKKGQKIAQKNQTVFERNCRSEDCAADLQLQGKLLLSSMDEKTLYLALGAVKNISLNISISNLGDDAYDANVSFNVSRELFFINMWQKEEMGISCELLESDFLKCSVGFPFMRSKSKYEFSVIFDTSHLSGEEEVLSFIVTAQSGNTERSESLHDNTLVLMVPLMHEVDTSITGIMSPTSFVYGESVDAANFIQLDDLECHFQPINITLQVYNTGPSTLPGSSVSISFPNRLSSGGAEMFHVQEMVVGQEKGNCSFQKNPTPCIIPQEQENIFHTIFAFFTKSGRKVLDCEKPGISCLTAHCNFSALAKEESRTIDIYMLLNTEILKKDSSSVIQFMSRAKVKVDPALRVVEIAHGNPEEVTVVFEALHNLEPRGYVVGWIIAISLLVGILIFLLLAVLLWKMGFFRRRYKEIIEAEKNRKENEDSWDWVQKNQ
α9β1 integrin, sequence (P05556 21-798): as the sequence (P05556 21-798) above

Take `CCN(CC)c1ccc2c(-c3ccc(S(=O)(=O)NCc4cn(C5C[C@@H](C(=O)N[C@@H](Cc6ccc(OC(=O)N7CCCC7)cc6)C(=O)O)N(S(=O)(=O)c6ccccc6)C5)nn4)cc3S(=O)(=O)[O-])c3ccc(=[N+](CC)CC)cc-3oc2c1` (some centres unmarked) [R-BC154 (IXb)]: in assay [1], the “binding to CB HSC (CD34+CD38−) and progenitors (CD34+CD38+)” value was “high”; the “binding to CB lineage committed cells (CD34−CD38+)” value is “modest”. The “binding through α9β1 on huNSG BM committed cells, progenitors and HSC” value in assay [2] was “significant binding through α9β1 only occurred on HSC”. Also, the “binding to central versus endosteal LSK and LSKSLAM” value in assay [3] (1 mM Ca2+/Mg2+) is “greater binding to central LSK and LSKSLAM was observed relative to their endosteal counterparts”. The “binding to α4−/−/α9−/− LSK and LSKSLAM cells” value in assay [3] (BM of α4flox/flox α9flox/flox vav-cre mice) was “essentially absent”. Besides, the “binding to HSC and progenitors on co-treatment with EDTA” value in assay [3] (EDTA (deactivating)) was “completely abolished activity”. The “binding to endosteal and central LSK” value in assay [3] (absence of both activating cations and EDTA) was “binding to endosteal LSK cells was still evident but not to central LSK”. Also, the “binding to lineage committed lymphoid and myeloid cells relative to LSKSLAM and LSK” value in assay [3] (exogenous activation) was “significantly lower relative to LSKSLAM”. Further, the “labelling of BM progenitor cells and HSC after injection” value in assay [4] was “Increased cell-associated fluorescence”. For the same molecule, at α4β1 integrin, the “affinity for α4β1 integrin” value was “high affinity”. Moreover, the “affinity for α9β1 integrin” value at α9β1 integrin is reported as “high affinity”.
